The text below walks through data of ChEMBL document CHEMBL5331073, “Discovery of novel 7,7-dimethyl-6,7-dihydro-5H-pyrrolo[3,4-d]pyrimidines as ATR inhibitors based on structure-based drug design” (Eur J Med Chem, 2023).

pIC50: −log10 of the molar value.

In data set [1] the target is Serine/threonine-protein kinase ATR (Homo sapiens, UniProt Q13535). Nature of the data set: Inhibition of ATR (unknown origin) using peptide as substrate preincubated for 10 mins followed by substrate addition by microplate reader analysis.
Serine/threonine-protein kinase ATR, sequence (Q13535 whole entry): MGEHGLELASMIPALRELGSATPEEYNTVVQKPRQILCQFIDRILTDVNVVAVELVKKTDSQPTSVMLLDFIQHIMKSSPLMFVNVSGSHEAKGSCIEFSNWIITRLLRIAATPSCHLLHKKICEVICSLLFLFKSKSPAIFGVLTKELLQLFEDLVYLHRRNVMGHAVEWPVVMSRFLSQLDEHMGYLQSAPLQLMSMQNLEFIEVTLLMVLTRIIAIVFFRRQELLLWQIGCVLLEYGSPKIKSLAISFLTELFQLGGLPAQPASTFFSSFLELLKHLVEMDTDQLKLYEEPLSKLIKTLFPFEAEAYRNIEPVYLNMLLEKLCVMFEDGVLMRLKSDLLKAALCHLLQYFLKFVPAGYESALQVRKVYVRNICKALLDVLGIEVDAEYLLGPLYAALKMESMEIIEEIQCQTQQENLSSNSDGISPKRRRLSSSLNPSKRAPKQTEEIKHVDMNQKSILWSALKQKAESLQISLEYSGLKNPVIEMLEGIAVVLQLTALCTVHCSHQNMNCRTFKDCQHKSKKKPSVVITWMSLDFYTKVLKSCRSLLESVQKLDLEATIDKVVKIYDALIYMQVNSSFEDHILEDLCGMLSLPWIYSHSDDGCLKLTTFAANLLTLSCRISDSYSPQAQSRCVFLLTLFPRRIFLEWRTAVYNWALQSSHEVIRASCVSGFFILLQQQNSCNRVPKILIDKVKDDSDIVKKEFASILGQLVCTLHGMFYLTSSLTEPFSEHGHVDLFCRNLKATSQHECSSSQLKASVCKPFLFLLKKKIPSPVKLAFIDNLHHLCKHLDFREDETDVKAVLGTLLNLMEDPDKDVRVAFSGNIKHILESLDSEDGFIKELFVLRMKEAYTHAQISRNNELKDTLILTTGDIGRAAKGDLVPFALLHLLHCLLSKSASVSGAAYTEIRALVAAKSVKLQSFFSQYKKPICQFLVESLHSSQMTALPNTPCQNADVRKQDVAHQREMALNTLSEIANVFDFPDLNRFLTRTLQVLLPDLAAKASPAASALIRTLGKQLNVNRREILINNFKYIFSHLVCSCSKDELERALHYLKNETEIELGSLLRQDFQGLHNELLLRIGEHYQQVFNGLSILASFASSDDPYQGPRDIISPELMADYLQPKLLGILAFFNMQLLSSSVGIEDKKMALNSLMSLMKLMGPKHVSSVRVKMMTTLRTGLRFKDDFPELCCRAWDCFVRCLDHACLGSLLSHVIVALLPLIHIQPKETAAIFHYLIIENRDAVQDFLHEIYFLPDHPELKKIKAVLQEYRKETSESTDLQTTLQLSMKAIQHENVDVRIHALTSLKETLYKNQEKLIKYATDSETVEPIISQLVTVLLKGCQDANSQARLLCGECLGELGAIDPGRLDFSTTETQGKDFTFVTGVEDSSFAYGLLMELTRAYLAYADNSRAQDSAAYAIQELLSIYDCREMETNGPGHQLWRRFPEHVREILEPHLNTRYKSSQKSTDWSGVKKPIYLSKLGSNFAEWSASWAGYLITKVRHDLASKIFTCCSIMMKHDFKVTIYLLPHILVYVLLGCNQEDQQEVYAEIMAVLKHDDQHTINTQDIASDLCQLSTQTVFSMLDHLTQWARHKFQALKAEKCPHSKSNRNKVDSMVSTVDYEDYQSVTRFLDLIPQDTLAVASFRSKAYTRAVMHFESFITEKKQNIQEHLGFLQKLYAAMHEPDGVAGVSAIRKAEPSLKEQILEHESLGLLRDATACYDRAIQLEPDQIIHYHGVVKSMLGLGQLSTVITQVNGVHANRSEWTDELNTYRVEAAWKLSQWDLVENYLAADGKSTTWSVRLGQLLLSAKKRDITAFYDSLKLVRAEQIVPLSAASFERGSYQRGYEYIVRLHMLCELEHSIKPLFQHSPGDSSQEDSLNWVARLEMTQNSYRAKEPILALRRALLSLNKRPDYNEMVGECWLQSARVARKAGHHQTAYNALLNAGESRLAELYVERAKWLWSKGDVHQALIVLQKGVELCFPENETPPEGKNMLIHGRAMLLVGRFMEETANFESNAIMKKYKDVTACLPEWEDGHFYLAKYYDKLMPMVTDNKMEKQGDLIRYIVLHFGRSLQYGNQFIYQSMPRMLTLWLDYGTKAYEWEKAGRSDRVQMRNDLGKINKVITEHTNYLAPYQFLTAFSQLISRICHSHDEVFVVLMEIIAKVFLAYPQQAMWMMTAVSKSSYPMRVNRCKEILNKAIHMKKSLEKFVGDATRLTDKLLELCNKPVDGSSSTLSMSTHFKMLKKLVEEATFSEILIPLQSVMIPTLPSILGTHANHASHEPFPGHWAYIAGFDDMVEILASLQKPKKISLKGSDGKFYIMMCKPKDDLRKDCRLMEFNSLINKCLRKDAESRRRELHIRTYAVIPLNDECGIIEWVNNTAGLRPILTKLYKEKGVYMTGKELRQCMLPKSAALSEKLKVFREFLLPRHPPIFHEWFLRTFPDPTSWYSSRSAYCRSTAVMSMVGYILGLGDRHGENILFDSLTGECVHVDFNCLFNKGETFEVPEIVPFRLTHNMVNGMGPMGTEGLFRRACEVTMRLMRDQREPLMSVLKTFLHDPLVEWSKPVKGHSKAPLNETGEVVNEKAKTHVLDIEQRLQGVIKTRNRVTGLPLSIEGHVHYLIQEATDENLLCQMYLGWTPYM
Data set [2] concerns LoVo. Nature of the data set: Antiproliferative activity against ATM-deficient human LoVo cells assessed as reduction in cell proliferation at 0.2 uM incubated for 3 days by MTT assay. It counts as functional. Details: scale not given: the % may be the effect or the level left. The conditions noted are these: time 3 day. For orientation: Tetrazolium dyes change colour on reduction, which living cells bring about.

For data set [3], the system named is LoVo. Nature of the data set: Antiproliferative activity against ATM-deficient human LoVo cells assessed as reduction in cell proliferation incubated for 3 days by MTT assay. It counts as functional, cell-based. The conditions noted are these: 72 h.
Data set [4] in a line: in vitro. Conditions: human, liver microsomes. In general terms: Microsomes from liver hold many membrane-bound enzymes, among them those of drug oxidation.
A short description of data set [5]: in vitro. The conditions noted are these: rat, liver microsomes.
Data set [6] in a line: in vitro. Conditions: rat, liver microsomes. The source holds these as a separate data set.
Data set [7] can be described thus: in vitro. The conditions noted are these: human, liver microsomes. The source holds these as a separate data set.
The nature of data set [8]: in vitro. The conditions noted are these: rat, liver microsomes. This is another data set of the same source.
A short description of data set [9]: in vitro. The conditions noted are these: human, liver microsomes. This is another data set of the same source.
Data set [10] deals with HT-29. Nature of the data set: Antiproliferative activity against ATM-proficient human HT-29 cells assessed as reduction in cell proliferation incubated for 3 days by MTT assay. It counts as functional, cell-based. The conditions noted are these: HT-29, 72 h.

By pIC50 is commonly meant the negative decadic logarithm of the IC50, by convention in mol/L. One may read the microsomal CLint as the rate of metabolic loss divided by the concentration. The term CLint scaled denotes the capacity of the preparation to metabolise the compound, expressed as a volume cleared per time. As a reminder, the half-life is how long it takes for the measured level to halve.

Take `COc1ccc(C(=O)N2CCc3c(N4CCOC[C@H]4C)nc(-c4cccc5[nH]ccc45)nc3C23CCC3)cc1`: the pIC50 in [1] was less than 7.00.
Turning to `CCOC(=O)N1CCc2c(N3CCOC[C@H]3C)nc(-c3cccc4[nH]ccc34)nc2C1(C)C`, the pIC50 in data set [1] was 7.74.
In data set [1], `COc1cccc(C(=O)N2CCc3nc(-c4cccc5[nH]ccc45)nc(N4CCOC[C@H]4C)c3C2)c1` showed a pIC50 of less than 7.00.
The same measure, in the same setting: to `COc1ccc(C(=O)N2CCc3nc(-c4cccc5[nH]ccc45)nc(N4CCOC[C@H]4C)c3C2)cc1` belongs less than 5.96.
Same read-out and setting: in the case of `COc1cccc(C(=O)N2CCc3c(nc(-c4cccc5[nH]ccc45)nc3N3CCOC[C@H]3C)C2)c1` it was 7.12; in that of `COc1ccc(C(=O)N2CCc3c(nc(-c4cccc5[nH]ccc45)nc3N3CCOC[C@H]3C)C2)cc1`, 7.29.
`C[C@@H]1COCCN1c1nc(-c2cccc3[nH]ccc23)nc2c1CCN(C(=O)C1CCC1)C2(C)C` had a pIC50 in data set [1] of 7.77.
Still for that read-out and setting: to `CC(=O)N1CCc2c(nc(-c3cccc4[nH]ccc34)nc2N2CCOC[C@H]2C)C1` belongs 7.54; to `C[C@@H]1COCCN1c1nc(-c2cccc3[nH]ccc23)nc2c1CCN(C(=O)c1cccc(C(F)(F)F)c1)C2(C)C`, 7.14; to `CCC(=O)N1CCc2c(N3CCOC[C@H]3C)nc(-c3cccc4[nH]ccc34)nc2C12CCC2`, 7.64.
In turn, `C[C@@H]1COCCN1c1nc(-c2cccc3[nH]ccc23)nc2c1CCN(C(=O)C1CC1)C21CCC1` showed a pIC50 in [1] of 7.55.
Consider `Cc1cccc(C(=O)N2CCc3c(N4CCOC[C@H]4C)nc(-c4cccc5[nH]ccc45)nc3C2(C)C)c1`, for which the pIC50 in data set [1] was 7.77.
Still for that read-out and setting: to `CC(C)C(=O)N1CCc2c(nc(-c3cccc4[nH]ccc34)nc2N2CCOC[C@H]2C)C1` belongs 7.82.
Turning to `C[C@@H]1COCCN1c1nc(-c2cccc3[nH]ccc23)nc2c1CN(C(=O)c1ccc(OC(F)(F)F)cc1)C2(C)C`, the pIC50 in data set [1] is 7.38.
Same read-out and setting: in the case of `COc1cccc(C(=O)N2CCc3c(N4CCOC[C@H]4C)nc(-c4cccc5[nH]ccc45)nc3C2(C)C)c1` it was 8.30; in that of `C=CC(=O)N1CCc2c(N3CCOC[C@H]3C)nc(-c3cccc4[nH]ccc34)nc2C1(C)C`, 8.22; in that of `C[C@@H]1COCCN1c1nc(-c2cccc3[nH]ccc23)nc2c1CCN(C(=O)c1cccc(Cl)c1)C2(C)C`, 7.37.
On the same count and under the same terms, in the case of `C[C@@H]1COCCN1c1nc(-c2cccc3[nH]ccc23)nc2c1CCN(C(=O)C1CC1)C2(C)C` it was 8.10.
Take `CCC(=O)N1Cc2c(N3CCOC[C@H]3C)nc(-c3cccc4[nH]ccc34)nc2C1(C)C`: in data set [2], the Activity is on record as less than 45%. In data set [1], this compound had a pIC50 of 8.70.
The compound `C[C@@H]1COCCN1c1nc(-c2cccc3[nH]ccc23)nc2c1CN(C(=O)C1CC1)CC2` had a pIC50 in [1] of 6.95.
For `C[C@@H]1COCCN1c1nc(-c2cccc3[nH]ccc23)nc2c1CN(C(=O)C1CC1)C2(C)C`, the Activity in data set [2] is less than 45%. The pIC50 in data set [1] is 8.10.
On to `C[C@@H]1COCCN1c1nc(-c2cccc3[nH]ccc23)nc2c1CN(C(=O)c1ccc(OC(F)F)cc1)C2(C)C`, for which the Activity in data set [2] was less than 45%. Moreover, in data set [1], the pIC50 is 8.30.
In the case of `COc1ccc(C(=O)N2Cc3c(N4CCOC[C@H]4C)nc(-c4cccc5[nH]ccc45)nc3C2(C)C)cc1OC`, the pIC50 in [1] is 8.15.
Compound `C[C@@H]1COCCN1c1nc(-c2cccc3[nH]ccc23)nc2c1CCN(C(=O)c1ccc(F)cc1)C2(C)C` gave a pIC50 in [1] of 7.74.
For `CCC(=O)N1CCc2nc(-c3cccc4[nH]ccc34)nc(N3CCOC[C@H]3C)c2C1`, the pIC50 in data set [1] is less than 5.96.
`COc1ccc(C(=O)N2CCc3c(N4CCOC[C@H]4C)nc(-c4cccc5[nH]ccc45)nc3C2(C)C)cc1`: in data set [1], the pIC50 was 8.05.
For the compound `C[C@@H]1COCCN1c1nc(-c2cccc3[nH]ccc23)nc2c1CN(C(=O)C(C)(C)C)C2(C)C`, the Activity in data set [2] is recorded as less than 45%. In [1], this compound had a pIC50 of 7.92.
In data set [1], `COc1cccc(C(=O)N2CCc3c(N4CCOC[C@H]4C)nc(-c4cccc5[nH]ccc45)nc3C23CCC3)c1` gave a pIC50 of less than 7.00.
The same measure, in the same setting: to `COC(=O)N1CCc2c(N3CCOC[C@H]3C)nc(-c3cccc4[nH]ccc34)nc2C1(C)C` belongs 7.74; to `C[C@@H]1COCCN1c1nc(-c2cccc3[nH]ccc23)nc2c1CCN(C(=O)C(C)(C)C)C2(C)C`, 7.77; to `CC(=O)N1CCc2nc(-c3cccc4[nH]ccc34)nc(N3CCOC[C@H]3C)c2C1`, less than 7.00.
`CC(C)C(=O)N1CCc2c(N3CCOC[C@H]3C)nc(-c3cccc4[nH]ccc34)nc2C1(C)C`: the pIC50 is 5.95 in data set [3], 8.00 in [1] and 5.37 in data set [10]. In addition, the figures for the intrinsic metabolic clearance (microsomal CLint) at 1 h, 1 µM in [4] and in data set [5] were 493 µL/min/mg and 129 µL/min/mg, respectively. Further, the CLint scaled at 1 h, 1 µM stood at 232 mL/min/kg in data set [6] and 466 mL/min/kg in [7]. Moreover, the half-life at 1 h, 1 µM in [8] amounted to 10.9 min; in [9] it was 2.82 min.
`C[C@@H]1COCCN1c1nc(-c2cccc3[nH]ccc23)nc2c1CCN(C(=O)CN1CCN(C)CC1)C2(C)C` had a negative-log IC50 (pIC50) in data set [1] of 7.28.
On the same count and under the same terms, in the case of `CC(C)C(=O)N1CCc2nc(-c3cccc4[nH]ccc34)nc(N3CCOC[C@H]3C)c2C1` it was less than 7.00.
Turning to `CC(C)C(=O)N1Cc2c(N3CCOC[C@H]3C)nc(-c3cccc4[nH]ccc34)nc2C1(C)C`, the Activity in [2] is given as less than 45%. Moreover, the pIC50 in data set [1] is 8.10.
The compound `CC(C)C(=O)N1CCc2c(N3CCOC[C@H]3C)nc(-c3cccc4[nH]ccc34)nc2C12CCC2` had a pIC50 in data set [1] of 7.54.
On to `CC(=O)N1Cc2c(N3CCOC[C@H]3C)nc(-c3cccc4[nH]ccc34)nc2C1(C)C`, for which the Activity in data set [2] was less than 45%. Besides, the pIC50 in data set [1] is 8.70.
On to `C[C@@H]1COCCN1c1nc(-c2cccc3[nH]ccc23)nc2c1CCN(C(=O)CN(C)C)C2(C)C`, for which the pIC50 in data set [1] is 7.49.
For the compound `C[C@@H]1COCCN1c1nc(-c2cccc3[nH]ccc23)nc2c1CCN(C(=O)C1CC1)C2`, the pIC50 in data set [1] was 7.85.
The same measure, in the same setting: to `COc1cc(C(=O)N2Cc3c(N4CCOC[C@H]4C)nc(-c4cccc5[nH]ccc45)nc3C2(C)C)cc(OC)c1OC` belongs 7.72.
On to `C[C@@H]1COCCN1c1nc(-c2cccc3[nH]ccc23)nc2c1CN(C(=O)C1CCC1)C2(C)C`, for which the Activity in data set [2] is less than 45%. The compound also showed a pIC50 in data set [1] of 8.15.
For the compound `C[C@@H]1COCCN1c1nc(-c2cccc3[nH]ccc23)nc2c1CN(C(=O)c1ccc3c(c1)OCCO3)C2(C)C`, the pIC50 in data set [3] is 6.83; in data set [1] it was 8.40; in data set [10], 6.31.
In [1], `C[C@@H]1COCCN1c1nc(-c2cccc3[nH]ccc23)nc2c1CCN(C(=O)Cc1cccs1)C2(C)C` gave a pIC50 of 8.05.
The same measure, in the same setting: to `C[C@@H]1COCCN1c1nc(-c2cccc3[nH]ccc23)nc2c1CCN(C(=O)Cc1ccccc1)C2(C)C` belongs 7.66; to `CC(=O)N1CCc2c(N3CCOC[C@H]3C)nc(-c3cccc4[nH]ccc34)nc2C12CCC2`, 7.46.
Still for that read-out and setting: in the case of `C[C@@H]1COCCN1c1nc(-c2cccc3[nH]ccc23)nc2c1CCN(C(=O)c1ccc(C(F)(F)F)cc1)C2(C)C` it was less than 7.00.
Consider `CCC(=O)N1CCc2c(N3CCOC[C@H]3C)nc(-c3cccc4[nH]ccc34)nc2C1(C)C`, for which the pIC50 in data set [3] is 6.11; in [1] it was 8.05; in data set [10], 5.61. Besides, the microsomal CLint at 1 h, 1 µM in data set [4] was determined as 207 µL/min/mg; in data set [5], 98.8 µL/min/mg. Also, the figures for the CLint scaled at 1 h, 1 µM in [6] and in data set [7] were 178 mL/min/kg and 195 mL/min/kg, respectively. The values for the half-life at 1 h, 1 µM in [8] and in [9] were 14 min and 6.7 min, respectively.
The compound `CCC(=O)N1CCc2c(nc(-c3cccc4[nH]ccc34)nc2N2CCOC[C@H]2C)C1` gave a pIC50 in data set [1] of 7.42.
With `C[C@@H]1COCCN1c1nc(-c2cccc3[nH]ccc23)nc2c1CCN(C(=O)c1cccc(F)c1)C2(C)C`, the values for the pIC50 in [3], in data set [1] and in data set [10] were 6.02, 7.85 and 5.59, respectively. The values for the microsomal CLint at 1 h, 1 µM in data set [4] and in [5] were 179 µL/min/mg and 59.6 µL/min/mg, respectively. Further, the values for the CLint scaled at 1 h, 1 µM in [6] and in data set [7] were 107 mL/min/kg and 169 mL/min/kg, respectively. The half-life at 1 h, 1 µM in [8] was 23.4 min; in data set [9] it was 7.76 min.
On to `C[C@@H]1COCCN1c1nc(-c2cccc3[nH]ccc23)nc2c1CCN(C(=O)c1ccccc1)C2(C)C`, for which the pIC50 in [3] was 6.24; in data set [1], 8.05; in data set [10] it was 5.78. For the same compound, the microsomal CLint at 1 h, 1 µM in [4] came out at 56.8 µL/min/mg; in [5], 36.4 µL/min/mg. Further, the CLint scaled at 1 h, 1 µM in data set [6] turned out to be 65.5 mL/min/kg; in data set [7], 53.7 mL/min/kg. For the same compound, the half-life at 1 h, 1 µM in data set [8] stood at 38.2 min; in data set [9], 24.5 min.
